Measured values published in publication PMC8929329, “The pharmaceutical excipient PEG400 affect the absorption of baicalein in Caco‐2 monolayer model by interacting with UDP‐glucuronosyltransferases and efflux transport proteins” (Pharmacology Research & Perspectives, 2022).
Where two headings read alike, the source gives them in different places.

Legend:
UGT1A9 = assay: Enzyme activity assay, intestinal microsome incubation: baicalein glucuronidation to BG; assay type: in vitro ADME, human; conditions: BG formation (UGT1A9)
Protocol: (§1) In this experiment, the effect of PEG400 on the enzyme activities of UGT1A8 and UGT1A9 was evaluated by in vitro microsome incubation. The activity of UGT1A8 and UGT1A9 was determined by detecting the production of BG and B6G with B as substrate.
(§2) The incubation system contained 10 µl of 50 mM Tris‐HCl (pH 7.4) buffer, 10 µl of 5 mM MgCl2 solution, 10 µl of 0.2 mg/ml alamethicin (Aladdin Biochemical Technology), and 20 µl of intestinal microsomes (Xenotech). The incubation system was pre‐incubated on ice for 15 min prior to experiment. Then, added 20 µl baicalein (dissolved in 50 mM Tris‐HCl) and PEG400 (20 µl) or 50 mM Tris‐HCl (20 µl) to the incubation system. The reaction was initiated by adding 5 mM UDPGA (10 µl) and incubated at 37°C for 15 min. The whole reaction was operated in a 1.5 ml centrifuge tube. Finally, the reaction was terminated by adding cold acetonitrile (100 µl) containing the genistein (IS). All solutions were thoroughly mixed for 3 min, then the mixture was centrifuged at 4°C at 16,000g for 15 min to precipitate the proteins completely. The supernatant was transferred and 10 µl was injected into the UPLC‐MS/MS system.
(§3) Kinetics parameters were obtained by fitting the data with Michaelis‐Menten equation (Equation 5) using […] GraphPad Prism® 9. (5) v=Vmax×s/Km+s where v (nmol/min/mg) is the velocity of metabolite formation, V max (nmol/min/mg) is the maximum velocity, K m (µM) is the Michaelis constant defined as the substrate concentration at half of V max, [S] (µM) is the substrate concentration

Caco-2 cell monolayer = assay: Permeation experiments on Caco-2 cell monolayer (two-way transport); assay type: in vitro ADME, human
Protocol: (§4) Cell culture was performed as previously described.[15] For transport experiments, Caco-2 cells from passage number 20-30 were seeded at a density of 2 × 10^5 cells per well on transwell plate (a solid insert for cell culture contains porous permeable polycarbonate membrane) with polycarbonate membranes using a blood-counting chamber (QIU JING®). A 0.5 ml of culture medium with cells was added to the apical side (AP) and 1.5 ml of blank culture medium was added to the basolateral side (BL). During the incubation period, the medium on the AP and BL sides were changed every 2 days in the first week, and every day after a week until the 21st day. The permeation of samples was assessed in both directions at different concentrations. This experiment assessed the influence of different concentrations (%, v/v) of PEG400 on the permeation process of B, BG, and […]. […] Caco-2 cell monolayers with qualified monolayer membrane integrity were used for drug permeability experiments. Aspirated and discarded the original culture medium in the transwell plate, added pre-warmed (37°C) HBSS to wash 3 times, put it in the incubator for the last time and incubated for 30 min. […] For the AP-BL permeability (absorptive transport study), add 0.5 ml of samples (dissolved in HBSS) to the apical side (AP) as a supply chamber, and add 1.5 ml of pre-warmed HBSS to the basolateral side (BL) as a receiving chamber. Alternatively, in the permeation direction of BL-AP compartment (secretive transport study), add 1.5 ml of samples (dissolved in HBSS) to the BL side as a supply chamber, and add 0.5 ml of pre-warmed HBSS to the AP side as a receiving chamber. After the above steps, put the transwell plate on the thermostatic oscillator (Changzhou Wanhe Instrument Manufacturing Co., Ltd.) at 60 r/min. And sample 100 μl from the receiving pool or 10 μl from the supply chamber at 30, 60, 90, and 120 min depending on the experiment, and make up the same volume of blank pre-warmed HBSS. The sample taken from the transwell plate was precipitated with the 100 μl of methanol to precipitate the protein. After centrifugation at 16 000g for 15 min at 4°C, 70 μl of the supernatant was taken. And the content was determined by UPLC-MS/MS method to calculate the apparent permeability coefficient (P app) and efflux ratio (ER). The P app and ER of Caco-2 monolayers was measured and calculated as Equations ((2), (3), (4)): (2) Papp=dQ/dt/AC0 Where ΔQ/Δt (ng/ml·s) is the rate of permeability (ng/ml·s for B, BG, […]); A is for the membrane area (1.12 cm^2); C 0 (ng/ml/for B, BG, […]) is the initial concentration of the sample in the supply chamber. The apparent permeability might need to be corrected because of the effect of the marked amount of baicalein glucuronide.[17] Thus, the corrected permeability was calculated from the total rate of drug transport and the glucuronide excretion rate of bidirectional side divided by the membrane area (A) of the monolayer and the initial concentration of baicalein at the loading side (C 0): (3) Pcorrected=dQ/dt+Aex+Bex/AC0 (4) […] - BL Where P appBL-AP is the apparent permeability coefficient when the sample is added on the basolateral side; […]-BL is the apparent permeability coefficient when the sample is added on the apical side.

[1] = as above; assay type: in vitro ADME, human; conditions: human, read-out: corrected apparent permeability (Pcorrected); for Papp at 120 min, 5 μM: baicalein 5 μM; for Papp at 120 min, 15 μM: baicalein 15 μM
Protocol: as §4

Stability study in HBSS = assay type: physicochemical; conditions: 37°C, 2 h
Protocol: The test was carried out by measuring the content of B, BG, and B6G before and after keeping in the HBSS solution at 37°C for 2 h. The time interval was selected according to the permeation experiment. The differences between the contents of the three samples before or after the incubation were calculated and expressed as the percentage of B, BG, and B6G remaining.

UGT1A8 = assay: Enzyme activity assay, intestinal microsome incubation: baicalein glucuronidation to B6G; assay type: in vitro ADME, human
Protocol: as §1, §2, §3

[2] = B6G formation (UGT1A8), 0.25% PEG400
[3] = B6G formation (UGT1A8), 0.5% PEG400
[4] = B6G formation (UGT1A8), 1% PEG400
[5] = B6G formation (UGT1A8), Control

O=c1cc(-c2ccccc2)oc2cc(O)c(O)c(O)c12 [B, baicalein]
K m (UGT1A9; 0.25% PEG400): 14.34 ± 1.92 µM | K m (UGT1A9; 0.25% PEG400, listed as baicalein): 14.34 ± 1.92 µM | K m (UGT1A9; 0.5% PEG400): 18.26 ± 3.61 µM | K m (UGT1A9; 1% PEG400): 28.30 ± 3.33 µM | K m (UGT1A9; 1% PEG400, listed as baicalein): 28.30 ± 3.33 µM | K m (UGT1A9; Control): 22.05 ± 3.74 µM | permeation within 2 h compared with the control group (Caco-2 cell monolayer; AL-BL experiment, baicalein 10 μM loaded with 0.5% (v/v) PEG400): significantly decreased | penetration within 2 h compared with the control group (Caco-2 cell monolayer; BL-AP experiment, baicalein 10 μM loaded with 0.5% (v/v) PEG): decreased significantly | Papp at 120 min, 10 μM ([1]; Caco-2, 10 μM B loaded on AP side, 0.25% 1% PEG400 group): 99.7 ×10⁻⁶ cm/s | Papp at 120 min, 10 μM ([1]; Caco-2, 10 μM B loaded on AP side, 0.25% PEG400 group): 100 ×10⁻⁶ cm/s | Papp at 120 min, 10 μM ([1]; Caco-2, 10 μM B loaded on AP side, 0.5% PEG400 group): 94.7 ×10⁻⁶ cm/s | Papp at 120 min, 5 μM ([1]; Caco-2, AP-BL): 73.2 ×10⁻⁶ cm/s | Papp at 120 min, 10 μM ([1]; Caco-2, AP-BL, baicalein 10 μM): 78.4 ×10⁻⁶ cm/s | Papp at 120 min, 15 μM ([1]; Caco-2, AP-BL): 53.5 ×10⁻⁶ cm/s | Papp at 120 min, 10 μM ([1]; Caco-2, BL-AP, 10 μM B, 0.25% PEG400 group): 186 ×10⁻⁶ cm/s | Papp at 120 min, 10 μM ([1]; Caco-2, BL-AP, 10 μM B, 0.5% PEG400 group): 159 ×10⁻⁶ cm/s | Papp at 120 min, 10 μM ([1]; Caco-2, BL-AP, 10 μM B, 1% PEG400 group): 135 ×10⁻⁶ cm/s | Papp at 120 min, 5 μM ([1]; Caco-2, BL-AP): 120 ×10⁻⁶ cm/s | Papp at 120 min, 10 μM ([1]; Caco-2, BL-AP, baicalein 10 μM): 163 ×10⁻⁶ cm/s | Papp at 120 min, 15 μM ([1]; Caco-2, BL-AP): 105 ×10⁻⁶ cm/s | Stability (percentage remaining) (Stability study in HBSS; 150 ng ml^−1): 98.11 ± 3.85% | Stability (percentage remaining) (Stability study in HBSS; 300 ng ml^−1): 99.70 ± 5.23% | Stability (percentage remaining) (Stability study in HBSS; 600 ng ml^−1): 98.43 ± 7.23% | K m (UGT1A8; [2]): 28.44 ± 8.34 µM | V max (UGT1A8; [2]): 4.54 ± 0.40 nmol/min/mg protein | K m (UGT1A8; B6G formation (UGT1A8), 0.25% PEG400, listed as baicalein): 28.44 ± 8.34 µM | K m (UGT1A8; [3]): 38.86 ± 3.76 µM | V max (UGT1A8; [3]): 6.68 ± 0.29 nmol/min/mg protein | K m (UGT1A8; [4]): 194.73 ± 48.82 µM | V max (UGT1A8; [4]): 24.78 ± 4.67 nmol/min/mg protein | K m (UGT1A8; B6G formation (UGT1A8), 1% PEG400, listed as baicalein): 194.73 ± 48.82 µM | K m (UGT1A8; [5]): 43.33 ± 2.63 µM | V max (UGT1A8; [5]): 4.64 ± 0.11 nmol/min/mg protein | V max (UGT1A8; UGT1A8, 0.25%PEG400): 4.54 ± 0.4 nmol/min/mg | V max (UGT1A8; UGT1A8, 0.5% PEG400): 6.68 ± 0.29 nmol/min/mg | V max (UGT1A8; UGT1A8, 1% PEG400): 24.8 ± 4.67 nmol/min/mg | V max (UGT1A8; UGT1A8, no PEG400): 4.64 ± 0.11 nmol/min/mg
